Laboratory results: US20110136751A1, “Use of Polyphenols in the Treatment of Cancer” (Green Molecular, priority 2009, published 2011)

Tests used:
BxPC-3 = experiment: IC50 on cell viability, Cell Counting Kit-8; type: cell-based; conditions: Homo sapiens; code 31, BxPC-3, Pancreas Adenocarcinoma; cell viability 120 h after administration
Protocol: (§1) A panel of 36 human cell lines were first tested in terms of population doubling time and growth curves to determine the conditions for further assays. The cells were also tested to determine the dose of radiation that produces 50% cell viability (D50). […] Cell viability was determined 120 h after the administration of the compounds using the Cell Counting Kit-8 (Dojindo Molecular Technologies, Inc, Rockville, Md.). In the experiments, 0.1% SDS and 1% DMSO were used as positive and negative controls, respectively. Final concentrations of the compounds used in the experiments are listed below in Table 5: […]

HCT 116 = experiment: IC50 on cell viability, Cell Counting Kit-8; type: cell-based; conditions: Homo sapiens; code 6, HCT 116, Colorectal Carcinoma; cell viability 120 h after administration
Protocol: as §1

HT-1080 = experiment: IC50 on cell viability, Cell Counting Kit-8; type: cell-based; conditions: Homo sapiens; code 9, HT-1080, Fibrosarcoma; cell viability 120 h after administration
Protocol: as §1

HT-29 = experiment: IC50 on cell viability, Cell Counting Kit-8; type: cell-based; conditions: Homo sapiens; code 8, HT-29, Colorectal Adenocarcinoma; cell viability 120 h after administration
Protocol: as §1

KHOS-NP = experiment: IC50 on cell viability, Cell Counting Kit-8; type: cell-based; conditions: Homo sapiens; code 28, KHOS-NP, Bone Osteosarcoma; cell viability 120 h after administration
Protocol: as §1

MEWO = experiment: IC50 on cell viability, Cell Counting Kit-8; type: cell-based; conditions: Homo sapiens; code 26, MEWO, Skin Melanoma; cell viability 120 h after administration
Protocol: as §1

SK-MEL-2 = experiment: IC50 on cell viability, Cell Counting Kit-8; type: cell-based; conditions: Homo sapiens; code 25, SK-MEL-2, Skin Melanoma; cell viability 120 h after administration
Protocol: as §1

HT-29 xenografts = experiment: HT-29 xenograft growth; type: in vivo, nu/nu nude mice; conditions: i.v., 40 mg of t-PTER or QUER/kg×day, single PF
Protocol: Tumor growth was measured during a 30-day period. Tumor volume, one week after inoculation and before PF administration, was of 56+15 mm3. A. […] B. Growth profile of control ([…]) and t-PTER- and QUER (∘) (20 mg of each PF/kg)-treated HT-29-bearing mice. Data are means±S.D. of 18-20 mice per group. The significant test refers, for all groups, to the comparison between PTER and/or QUER and controls (treated with physiological saline) (*P<0.01). For HT-29 cancer cell xenograft experiments, female nu/nu nude mice (ages 6 to 8 weeks; […] Tumor volume was calculated based on two dimensions, measured using calipers, and was expressed in cubic millimeters according to the formula: […] For histological analysis the surgical and xenograft tissue samples were fixed in 4% formaldehyde, paraffin embedded, and stained with hematoxilin & eosin and safran. […] This study was conducted in compliance with international laws and policies (EEC Directive 86/609, OJ L 358. 1, Dec. 12, 1987; and NIH Guide for the Care and Use of Laboratory Animals, NIH Publ. No. 85-23, 1985). X rays were administered using a […] SL75 linear accelerator from Philips. For this purpose each mouse was anesthetized with nembutal (50 mg/kg i.p.), and fixed on a Perspex platform.

[1] = tested on: Human melanoma (A375), breast cancer (MCF7), lung cancer (A549), and colon cancer (HT29) cell lines; experiment: Cell inhibition study (cell counting); type: cell-based; conditions: for cell number (relative proliferation index): 0-100 μM, FIGS. 8A through 8D; for IC50: Homo sapiens, all cell lines (A375, MCF7, A549, HT29)
Protocol: (§2) Cancer cells (0.2×10^6 cells/well) were seeded in six well-plates and, 24 h later, were treated with PTER or RES (0-100 mM) (ethanol as solvent vehicle was at a conc. of 0.3%). Cell growth was analyzed using the Countess® Automated Cell Counter (Invitrogen). Results were expressed as relative proliferation index±SD (n=4) where control is 100.
(§3) The aim of this study was to determine whether pterostilbene causes cytotoxicity in human tumors at concentrations that are reliable under in vivo conditions; and, to identify which death-related molecular mechanisms may be activated by the compound. Human melanoma (A375), breast cancer (MCF7), lung cancer (A549), and colon cancer (HT29) cell lines were used in this set of experiments. Pterostilbene and resveratrol were used in a μM range, between 10 μM (below the IC50 for all cell lines) and 200 μM (an unachievable in vivo concentration). Cell cycle and apoptosis induction were determined by flow cytometry.
as §2, with “Cells from the cancer lines” for “Cancer cells”, “pterostilbene” for “PTER”, “resveratrol” for “RES”, “μM)” for “mM)”

[2] = tested on: Human melanoma (A375), breast cancer (MCF7), lung cancer (A549), and colon cancer (HT29) cell lines; experiment: Cell cycle study (flow cytometry); type: cell-based; conditions: treated for 24 h; FIG. 9
Protocol: Cancer cells (0.2×10^6 cells/well) were seeded in six well-plates and, 24 h later, were treated for 24 h with different concentrations ([…]) of PTER or ReES. Cells were trypsinized and pelleted at 1000×g for 2 min. Cells were resuspended in PBS. Ethanol was added up to a final 70% conc. The DNA cellular content was analyzed by flow cytometry (10000 cell events were collected per sample). Results are expressed as % of total cells±SD (n=3).
as §3
The effects of pterostilbene and resveratrol on cell cycle were tested. […] Both DNA synthesis and tubulin polymerization were seriously affected.

[3] = tested on: Human melanoma (A375), breast cancer (MCF7), lung cancer (A549), and colon cancer (HT29) cell lines; experiment: Apoptosis induction (flow cytometry); type: cell-based; conditions: with increasing concentration
Protocol: as §3, with “Pterostilbene and resveratrol were used in a μM range, between 10 μM (below the IC50 for all cell lines) and 200 μM (an unachievable in vivo concentration).” left out, “cytometry. […] The tumor cell death induced by pterostilbene appears to be partially independent of caspase activity.” for “cytometry.”

[4] = cited from earlier work

Structure (SMILES)	IC50 (BxPC-3)	IC50 (HCT 116)	IC50 (HT-1080)	IC50 (HT-29)	IC50 (KHOS-NP)	IC50 (MEWO)	IC50 (SK-MEL-2)	CRC growth inhibition compared with the 20 mg/kg×day dose (HT-29 xenografts)	cell number (relative proliferation index) [1]	IC50 [1]	cell cycle [2]	apoptosis [3]	half-life in circulating blood ([4]; after i.v. administration of 20 mg/kg to e.g. rabbits)	inhibitory effect on human tumor cell growth versus resveratrol [1]	half-life in blood ([4]; rabbit, in vivo)
O=c1c(O)c(-c2ccc(O)c(O)c2)oc2cc(O)cc(O)c12 [QUER, quercetin]	15.9 µM	56.9 µM	5.54 µM	18.7 µM	15.7 µM	8.59 µM	11.6 µM	not significantly different							
Oc1ccc(/C=C/c2cc(O)cc(O)c2)cc1 [RI, trans-3,5,4′-trihydroxystilbene, reference compound]	13.6 µM	31.4 µM	10.2 µM	27.9 µM	20 µM	17.1 µM	10.7 µM		reduced cell number in a concentration- and time-dependent manner	> 10 µM	arrested in S phase	progressively activated	~14.4 min		
COc1cc(/C=C/c2ccc(O)cc2)cc(OC)c1 [t-PTER, trans-3,5-dimethoxy-4′-hydroxystilbene]	31.1 µM	45.2 µM	17.8 µM	28.4 µM	25.6 µM	39 µM	17.3 µM	not significantly different	reduced cell number in a concentration- and time-dependent manner	> 10 µM	arrested in S phase	progressively activated		stronger inhibitory effect	~77.9 min
